Laboratory results taken from ChEMBL document CHEMBL1782045, “Discovery, synthesis, and investigation of the antitumor activity of novel piperazinylpyrimidine derivatives” (Eur J Med Chem, 2011).

Columns and labels:
[1] = tested on: NCI-H23; test: Growth inhibition of human NCI-H23 cells after 48 hrs by sulforhodamine B assay; type: functional; conditions: NCI-H23, 48 h
[2] = tested on: Malme-3M; test: Growth inhibition of human MALME-3M cells after 48 hrs by sulforhodamine B assay; type: functional
[3] = tested on: HT-29; test: Growth inhibition of human HT-29 cells after 48 hrs by sulforhodamine B assay; type: functional; conditions: HT-29, 48 h
[4] = tested on: SN12C; test: Growth inhibition of human SN12C cells after 48 hrs by sulforhodamine B assay; type: functional
[5] = tested on: Mast/stem cell growth factor receptor Kit (Homo sapiens), P10721 [D816H]; test: Binding affinity to human KIT D816H mutant at 10 uM incubated for 1 hr by kinase binding assay relative to untreated control
[6] = tested on: COLO 205; test: Growth inhibition of human COLO205 cells after 48 hrs by sulforhodamine B assay; type: functional; conditions: COLO 205, 48 h
[7] = tested on: CCRF-CEM; test: Cytotoxicity against human CCRF-CEM cells after 48 hrs by sulforhodamine B assay; type: cell-based
[8] = tested on: HCC 2998; test: Growth inhibition of human HCC2998 cells after 48 hrs by sulforhodamine B assay; type: functional; conditions: HCC 2998, 48 h
[9] = tested on: SF-268; test: Growth inhibition of human SF268 cells after 48 hrs by sulforhodamine B assay; type: functional; conditions: SF-268, 48 h
[10] = tested on: IGROV-1; test: Cytotoxicity against human IGROV1 cells after 48 hrs by sulforhodamine B assay; type: cell-based; conditions: igrov-1, 48 h
[11] = tested on: RPMI-8226; test: Growth inhibition of human RPMI8226 cells after 48 hrs by sulforhodamine B assay; type: functional; conditions: RPMI-8226, 48 h
[12] = tested on: HCT-15; test: Growth inhibition of human HCT15 cells after 48 hrs by sulforhodamine B assay; type: functional; conditions: HCT-15, 48 h
[13] = tested on: A549; test: Growth inhibition of human A549 cells after 48 hrs by sulforhodamine B assay; type: functional; conditions: A549, 48 h
[14] = tested on: EKVX; test: Cytotoxicity against human EKVX cells after 48 hrs by sulforhodamine B assay; type: cell-based
[15] = tested on: HOP-62; test: Cytotoxicity against human HOP62 cells after 48 hrs by sulforhodamine B assay; type: cell-based; conditions: hop-62, 48 h
[16] = tested on: SK-MEL-5; test: Growth inhibition of human SK-MEL-5 cells after 48 hrs by sulforhodamine B assay; type: functional; conditions: SK-MEL-5, 48 h
[17] = tested on: EKVX; test: Growth inhibition of human EKVX cells after 48 hrs by sulforhodamine B assay; type: functional
[18] = tested on: 786-0; test: Cytotoxicity against human 786-0 cells after 48 hrs by sulforhodamine B assay; type: cell-based; conditions: 786-0, 48 h
[19] = tested on: RXF 393; test: Cytotoxicity against human RXF393 cells after 48 hrs by sulforhodamine B assay; type: cell-based; conditions: rxf 393, 48 h
[20] = tested on: OVCAR-5; test: Growth inhibition of human OVCAR5 cells after 48 hrs by sulforhodamine B assay; type: functional; conditions: OVCAR-5, 48 h
[21] = tested on: TK-10; test: Growth inhibition of human TK10 cells after 48 hrs by sulforhodamine B assay; type: functional; conditions: TK-10, 48 h
[22] = tested on: CAKI-1; test: Growth inhibition of human Caki1 cells after 48 hrs by sulforhodamine B assay; type: functional; conditions: CAKI-1, 48 h
[23] = tested on: MDA-MB-468; test: Cytotoxicity against human MDA-MB-468 cells after 48 hrs by sulforhodamine B assay; type: cell-based; conditions: mda-mb-468, 48 h
[24] = target: Cyclin-dependent kinase 19 (Homo sapiens) (UniProt Q9BWU1); test: Binding affinity to human CDK11 at 10 uM incubated for 1 hr by kinase binding assay relative to untreated control
[25] = target: Casein kinase I isoform delta (Homo sapiens) (UniProt P48730); test: Inhibition of human CSNK1D using gamma-33P-ATP as substrate assessed as enzyme functional activity at 1 uM by scintillation counting relative to untreated control; parameters: scale not given: the % may be the effect or the level left
[26] = tested on: NCI-H460; test: Cytotoxicity against human NCI-H460 cells after 48 hrs by sulforhodamine B assay; type: cell-based; conditions: nci-h460, 48 h
[27] = tested on: SF-539; test: Cytotoxicity against human SF539 cells after 48 hrs by sulforhodamine B assay; type: cell-based; conditions: sf-539, 48 h
[28] = tested on: M14; test: Growth inhibition of human M14 cells after 48 hrs by sulforhodamine B assay; type: functional; conditions: M14, 48 h
[29] = tested on: HOP-92; test: Growth inhibition of human HOP92 cells after 48 hrs by sulforhodamine B assay; type: functional; conditions: HOP-92, 48 h
[30] = tested on: SF-268; test: Cytotoxicity against human SF268 cells after 48 hrs by sulforhodamine B assay; type: cell-based; conditions: sf-268, 48 h
[31] = tested on: SNB-19; test: Cytotoxicity against human SNB19 cells after 48 hrs by sulforhodamine B assay; type: cell-based; conditions: snb-19, 48 h
[32] = tested on: UACC-62; test: Cytotoxicity against human UACC62 cells after 48 hrs by sulforhodamine B assay; type: cell-based; conditions: uacc-62, 48 h
[33] = tested on: SK-OV-3; test: Growth inhibition of human SKOV3 cells after 48 hrs by sulforhodamine B assay; type: functional; conditions: SK-OV-3, 48 h
[34] = tested on: OVCAR-3; test: Cytotoxicity against human OVCAR3 cells after 48 hrs by sulforhodamine B assay; type: cell-based; conditions: ovcar-3, 48 h
[35] = target: Serine/threonine-protein kinase B-raf (Homo sapiens) (UniProt P15056); test: Binding affinity to human BRAF at 10 uM incubated for 1 hr by kinase binding assay relative to untreated control
[36] = tested on: BT-549; test: Growth inhibition of human BT549 cells after 48 hrs by sulforhodamine B assay; type: functional; conditions: BT-549, 48 h
[37] = tested on: MDA-MB-435; test: Growth inhibition of human MDA-MB-435 cells after 48 hrs by sulforhodamine B assay; type: functional; conditions: MDA-MB-435, 48 h
[38] = tested on: U-251; test: Growth inhibition of human U251 cells after 48 hrs by sulforhodamine B assay; type: functional; conditions: U-251, 48 h
[39] = tested on: NCI-H23; test: Cytotoxicity against human NCI-H23 cells after 48 hrs by sulforhodamine B assay; type: cell-based; conditions: nci-h23, 48 h
[40] = tested on: Mast/stem cell growth factor receptor Kit (Homo sapiens), P10721 [V559D]; test: Binding affinity to human KIT V559D mutant at 10 uM incubated for 1 hr by kinase binding assay relative to untreated control
[41] = tested on: Hs-578T; test: Growth inhibition of human Hs578T cells after 48 hrs by sulforhodamine B assay; type: functional
[42] = tested on: SF-295; test: Cytotoxicity against human SF295 cells after 48 hrs by sulforhodamine B assay; type: cell-based; conditions: sf-295, 48 h
[43] = target: Mast/stem cell growth factor receptor Kit (Homo sapiens) (UniProt P10721); test: Binding affinity to human KIT at 10 uM incubated for 1 hr by kinase binding assay relative to untreated control
[44] = tested on: Platelet-derived growth factor receptor alpha (Homo sapiens), P16234 [D842V]; test: Inhibition of human PDGFRA D842V using gamma-33P-ATP as substrate assessed as enzyme functional activity at 1 uM by scintillation counting relative to untreated control; parameters: scale not given: the % may be the effect or the level left
[45] = tested on: UACC-257; test: Growth inhibition of human UACC257 cells after 48 hrs by sulforhodamine B assay; type: functional; conditions: UACC-257, 48 h
[46] = target: Platelet-derived growth factor receptor alpha (Homo sapiens) (UniProt P16234); test: Binding affinity to human PDGFRA at 10 uM incubated for 1 hr by kinase binding assay relative to untreated control
Platelet-derived growth factor receptor alpha (Homo sapiens), sequence (P16234 whole entry): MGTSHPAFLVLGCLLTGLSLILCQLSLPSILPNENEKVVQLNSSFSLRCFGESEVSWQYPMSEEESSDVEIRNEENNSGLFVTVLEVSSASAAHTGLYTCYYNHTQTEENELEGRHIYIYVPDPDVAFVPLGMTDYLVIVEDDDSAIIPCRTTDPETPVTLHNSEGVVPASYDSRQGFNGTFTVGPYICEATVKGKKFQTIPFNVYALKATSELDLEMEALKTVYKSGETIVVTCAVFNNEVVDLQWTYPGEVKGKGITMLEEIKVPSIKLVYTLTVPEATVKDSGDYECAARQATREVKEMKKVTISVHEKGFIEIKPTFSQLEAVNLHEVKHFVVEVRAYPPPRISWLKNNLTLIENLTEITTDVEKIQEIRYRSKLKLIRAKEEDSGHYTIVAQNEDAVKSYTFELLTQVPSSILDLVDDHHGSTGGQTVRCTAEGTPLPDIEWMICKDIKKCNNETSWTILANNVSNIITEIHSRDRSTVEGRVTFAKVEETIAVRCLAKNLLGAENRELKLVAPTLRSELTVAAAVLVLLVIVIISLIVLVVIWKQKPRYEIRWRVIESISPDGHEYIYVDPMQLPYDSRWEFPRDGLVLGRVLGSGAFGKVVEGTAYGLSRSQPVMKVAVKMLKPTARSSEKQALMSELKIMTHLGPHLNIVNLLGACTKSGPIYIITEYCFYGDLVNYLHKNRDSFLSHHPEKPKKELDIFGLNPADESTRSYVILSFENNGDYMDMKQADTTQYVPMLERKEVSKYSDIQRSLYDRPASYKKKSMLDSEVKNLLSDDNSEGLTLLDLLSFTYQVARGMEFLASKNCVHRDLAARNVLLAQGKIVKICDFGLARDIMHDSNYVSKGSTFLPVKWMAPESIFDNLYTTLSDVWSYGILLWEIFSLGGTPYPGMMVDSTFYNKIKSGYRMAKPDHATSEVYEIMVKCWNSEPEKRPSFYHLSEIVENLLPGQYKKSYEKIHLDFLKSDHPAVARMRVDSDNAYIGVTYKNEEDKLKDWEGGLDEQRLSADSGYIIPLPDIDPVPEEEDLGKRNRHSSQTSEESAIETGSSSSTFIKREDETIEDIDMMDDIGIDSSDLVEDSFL

Mast/stem cell growth factor receptor Kit (Homo sapiens), P10721 [D816H], sequence (P10721 whole entry D816H): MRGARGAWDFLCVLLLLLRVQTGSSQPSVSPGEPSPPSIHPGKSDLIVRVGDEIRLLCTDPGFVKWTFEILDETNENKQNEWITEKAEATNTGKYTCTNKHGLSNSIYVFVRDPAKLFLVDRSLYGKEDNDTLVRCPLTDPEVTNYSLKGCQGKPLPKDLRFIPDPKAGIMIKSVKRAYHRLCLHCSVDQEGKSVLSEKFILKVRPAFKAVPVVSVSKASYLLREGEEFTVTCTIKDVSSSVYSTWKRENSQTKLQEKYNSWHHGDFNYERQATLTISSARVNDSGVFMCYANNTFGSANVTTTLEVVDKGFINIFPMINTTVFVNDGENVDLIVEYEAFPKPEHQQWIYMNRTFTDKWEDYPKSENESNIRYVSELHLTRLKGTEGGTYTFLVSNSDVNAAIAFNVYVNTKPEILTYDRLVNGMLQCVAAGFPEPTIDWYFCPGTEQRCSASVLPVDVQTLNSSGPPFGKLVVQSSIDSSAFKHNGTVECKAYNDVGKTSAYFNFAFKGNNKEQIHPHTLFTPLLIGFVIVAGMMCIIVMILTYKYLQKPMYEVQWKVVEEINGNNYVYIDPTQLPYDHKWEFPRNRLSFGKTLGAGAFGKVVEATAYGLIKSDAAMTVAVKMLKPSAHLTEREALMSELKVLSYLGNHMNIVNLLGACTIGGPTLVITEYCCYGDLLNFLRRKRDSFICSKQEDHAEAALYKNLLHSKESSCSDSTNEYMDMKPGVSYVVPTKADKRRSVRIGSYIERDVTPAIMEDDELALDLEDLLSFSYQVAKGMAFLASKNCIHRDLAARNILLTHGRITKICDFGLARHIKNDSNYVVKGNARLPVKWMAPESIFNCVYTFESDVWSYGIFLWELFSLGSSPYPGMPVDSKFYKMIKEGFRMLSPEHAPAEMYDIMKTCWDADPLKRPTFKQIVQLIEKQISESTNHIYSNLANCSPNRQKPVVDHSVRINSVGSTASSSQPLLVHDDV
Casein kinase I isoform delta (Homo sapiens), sequence (P48730 whole entry, looked up, canonical isoform): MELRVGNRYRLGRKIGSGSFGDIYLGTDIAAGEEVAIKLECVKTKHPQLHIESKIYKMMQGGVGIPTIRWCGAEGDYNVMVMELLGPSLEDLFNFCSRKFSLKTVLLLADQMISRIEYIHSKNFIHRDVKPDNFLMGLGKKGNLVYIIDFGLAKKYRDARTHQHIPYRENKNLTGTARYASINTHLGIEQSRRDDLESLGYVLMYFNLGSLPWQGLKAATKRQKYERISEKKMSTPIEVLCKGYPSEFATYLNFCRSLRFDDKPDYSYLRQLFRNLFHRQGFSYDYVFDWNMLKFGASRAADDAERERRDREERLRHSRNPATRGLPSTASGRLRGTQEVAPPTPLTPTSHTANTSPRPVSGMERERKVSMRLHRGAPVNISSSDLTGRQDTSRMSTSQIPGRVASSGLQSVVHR
Serine/threonine-protein kinase B-raf (Homo sapiens), sequence (P15056 whole entry): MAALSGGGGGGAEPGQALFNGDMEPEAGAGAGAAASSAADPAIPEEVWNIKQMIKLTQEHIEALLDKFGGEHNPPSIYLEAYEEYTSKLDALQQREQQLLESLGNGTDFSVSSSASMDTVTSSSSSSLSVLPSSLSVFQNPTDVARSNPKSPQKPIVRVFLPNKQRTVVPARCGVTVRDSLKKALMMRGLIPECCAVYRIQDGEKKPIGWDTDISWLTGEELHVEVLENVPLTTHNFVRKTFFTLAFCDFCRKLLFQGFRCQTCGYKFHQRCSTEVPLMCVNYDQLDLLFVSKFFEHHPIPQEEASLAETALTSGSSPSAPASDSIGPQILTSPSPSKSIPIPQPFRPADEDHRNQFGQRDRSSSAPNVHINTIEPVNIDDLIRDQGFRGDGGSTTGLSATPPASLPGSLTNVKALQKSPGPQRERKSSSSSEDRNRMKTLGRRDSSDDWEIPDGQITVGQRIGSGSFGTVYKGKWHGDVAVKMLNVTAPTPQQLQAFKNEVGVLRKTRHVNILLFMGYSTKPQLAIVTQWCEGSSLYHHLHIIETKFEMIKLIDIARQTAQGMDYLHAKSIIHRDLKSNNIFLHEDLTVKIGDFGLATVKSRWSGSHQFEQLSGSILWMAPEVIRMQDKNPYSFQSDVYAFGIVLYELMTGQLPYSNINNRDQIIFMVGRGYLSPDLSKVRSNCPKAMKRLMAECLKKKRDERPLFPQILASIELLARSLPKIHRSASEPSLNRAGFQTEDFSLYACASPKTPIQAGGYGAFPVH
Cyclin-dependent kinase 19 (Homo sapiens), sequence (Q9BWU1 whole entry, canonical isoform): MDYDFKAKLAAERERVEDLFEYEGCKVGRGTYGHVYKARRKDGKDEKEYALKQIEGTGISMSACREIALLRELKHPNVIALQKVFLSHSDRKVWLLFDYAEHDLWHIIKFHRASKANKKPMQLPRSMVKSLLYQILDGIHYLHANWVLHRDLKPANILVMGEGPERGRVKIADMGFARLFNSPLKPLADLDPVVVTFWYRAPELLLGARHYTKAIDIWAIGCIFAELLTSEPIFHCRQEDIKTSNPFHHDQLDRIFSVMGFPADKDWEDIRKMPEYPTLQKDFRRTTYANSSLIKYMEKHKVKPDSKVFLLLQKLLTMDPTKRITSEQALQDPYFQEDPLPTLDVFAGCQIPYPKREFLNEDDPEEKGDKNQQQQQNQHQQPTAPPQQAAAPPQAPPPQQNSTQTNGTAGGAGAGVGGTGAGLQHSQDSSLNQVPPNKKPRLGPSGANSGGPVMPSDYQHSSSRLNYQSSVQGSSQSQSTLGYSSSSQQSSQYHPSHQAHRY
Mast/stem cell growth factor receptor Kit (Homo sapiens), sequence (P10721 whole entry): as the sequence (P10721 whole entry D816H) above, with H816D counted along it
Mast/stem cell growth factor receptor Kit (Homo sapiens), P10721 [V559D], sequence (P10721 whole entry V559D): as the sequence (P10721 whole entry D816H) above, with V559D, H816D counted along it
Platelet-derived growth factor receptor alpha (Homo sapiens), P16234 [D842V], sequence (P16234 whole entry D842V): as the sequence (P16234 whole entry) above, with D842V counted along it

## c1ccc(Cc2cnc(N3CCN(c4ncnc5ccccc45)CC3)nc2)cc1
[1]
  TGI: 30.8 µM
[2]
  TGI: 33.6 µM
[3]
  TGI: 35.1 µM
[4]
  TGI: 24.4 µM
[5]
  Activity: 30%
[6]
  TGI: > 100 µM
[7]
  LC50: > 100 µM
[8]
  TGI: 60.9 µM
[9]
  TGI: 57.2 µM
[10]
  LC50: > 100 µM
[11]
  TGI: 21.8 µM
[12]
  TGI: 63.2 µM
[13]
  TGI: 35.7 µM
[14]
  LC50: > 100 µM
[15]
  LC50: > 100 µM
[16]
  TGI: 13.9 µM
[17]
  TGI: 33.1 µM
[18]
  LC50: > 100 µM
[19]
  LC50: > 100 µM
[20]
  TGI: 69.8 µM
[21]
  TGI: 60.8 µM
[22]
  TGI: 39.3 µM
[23]
  LC50: > 100 µM
[24]
  Activity: 0%
[25]
  Activity: 90%
[26]
  LC50: 55 µM
[27]
  LC50: 56.1 µM
[28]
  TGI: 26.3 µM
[29]
  TGI: 24.2 µM
[30]
  LC50: > 100 µM
[31]
  LC50: > 100 µM
[32]
  LC50: 63.1 µM
[33]
  TGI: > 100 µM
[34]
  LC50: 48.2 µM
[35]
  Activity: > 50%
[36]
  TGI: 18.4 µM
[37]
  TGI: 27.5 µM
[38]
  TGI: 24.6 µM
[39]
  LC50: > 100 µM

## CCc1cnc(N2CCN(C(=O)c3ccc(CNc4ncnc5ccccc45)cc3)CC2)nc1
[2]
  TGI: 42.2 µM
[40]
  Activity: > 50%
[3]
  TGI: 83.2 µM
[4]
  TGI: 59 µM
[5]
  Activity: > 50%
[41]
  TGI: > 100 µM
[6]
  TGI: 38.2 µM
[7]
  LC50: > 100 µM
[9]
  TGI: 100 µM
[10]
  LC50: > 100 µM
[42]
  LC50: > 100 µM
[12]
  TGI: > 100 µM
[13]
  TGI: > 100 µM
[14]
  LC50: > 100 µM
[15]
  LC50: > 100 µM
[18]
  LC50: > 100 µM
[19]
  LC50: > 100 µM
[20]
  TGI: > 100 µM
[21]
  TGI: > 100 µM
[22]
  TGI: 94.8 µM
[23]
  LC50: > 100 µM
[43]
  Activity: > 50%
[24]
  Activity: 47%
[25]
  Activity: 87%
[44]
  Activity: 100%
[26]
  LC50: > 100 µM
[27]
  LC50: > 100 µM
[28]
  TGI: 32.7 µM
[29]
  TGI: 80.1 µM
[45]
  TGI: 26.8 µM
[30]
  LC50: > 100 µM
[31]
  LC50: > 100 µM
[46]
  Activity: > 50%
[32]
  LC50: > 100 µM
[33]
  TGI: > 100 µM
[34]
  LC50: > 100 µM
[35]
  Activity: 34%
[37]
  TGI: > 100 µM
[38]
  TGI: > 100 µM
[39]
  LC50: > 100 µM

## O=C(c1cccc(Nc2ncnc3ccccc23)c1)N1CCN(c2ncc(Cc3ccccc3)cn2)CC1
[1]
  TGI: 2.69 µM
[40]
  Activity: > 50%
[3]
  TGI: 9.33 µM
[4]
  TGI: 7.08 µM
[5]
  Activity: > 50%
[41]
  TGI: 7.41 µM
[6]
  TGI: 2.75 µM
[8]
  TGI: 3.98 µM
[9]
  TGI: > 100 µM
[10]
  LC50: 5.01 µM
[42]
  LC50: > 100 µM
[11]
  TGI: 0.6 µM
[12]
  TGI: 3.55 µM
[13]
  TGI: 3.09 µM
[14]
  LC50: > 100 µM
[15]
  LC50: 7.41 µM
[16]
  TGI: 1.2 µM
[17]
  TGI: 4.9 µM
[18]
  LC50: > 100 µM
[19]
  LC50: > 100 µM
[20]
  TGI: 5.75 µM
[21]
  TGI: 6.17 µM
[23]
  LC50: > 100 µM
[43]
  Activity: > 50%
[24]
  Activity: > 50%
[25]
  Activity: 74%
[44]
  Activity: 96%
[26]
  LC50: > 100 µM
[27]
  LC50: > 100 µM
[45]
  TGI: 2.63 µM
[30]
  LC50: 5.01 µM
[31]
  LC50: > 100 µM
[46]
  Activity: > 50%
[32]
  LC50: 5.37 µM
[33]
  TGI: 4.47 µM
[34]
  LC50: > 100 µM
[35]
  Activity: > 50%
[36]
  TGI: 1.74 µM
[37]
  TGI: 2.14 µM
[38]
  TGI: 6.61 µM
[39]
  LC50: 6.92 µM
